Data on 14 compounds can be found in patent EP0725068A1 (TOKYO TANABE COMPANY LIMITED, priority 1993, dated 1995).

One experiment addresses T1, colonic 5-HT3 receptors (Cavia porcellus, UniProt O70212).
T1 construct: the distal colons (3-10 cm from the anus) were isolated and suspended in a Magnus tube filled with Krebs solution; from tissue; host or cells: isolated distal colon of male Hartley guinea pig
T1 sequence (O70212 20-490): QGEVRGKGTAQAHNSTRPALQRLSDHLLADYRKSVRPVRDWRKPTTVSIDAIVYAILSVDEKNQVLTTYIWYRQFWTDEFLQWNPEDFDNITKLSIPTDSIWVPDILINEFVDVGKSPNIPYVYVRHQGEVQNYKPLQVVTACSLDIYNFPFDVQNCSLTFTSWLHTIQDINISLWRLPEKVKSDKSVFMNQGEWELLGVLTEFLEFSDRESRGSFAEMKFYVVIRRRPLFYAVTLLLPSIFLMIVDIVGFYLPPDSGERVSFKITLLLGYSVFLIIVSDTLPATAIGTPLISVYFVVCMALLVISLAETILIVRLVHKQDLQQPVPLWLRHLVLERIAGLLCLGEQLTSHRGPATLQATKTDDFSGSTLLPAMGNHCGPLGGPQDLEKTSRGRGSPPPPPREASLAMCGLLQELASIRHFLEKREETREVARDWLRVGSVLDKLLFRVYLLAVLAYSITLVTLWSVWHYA
In words: Colonic 5-HT3 receptor antagonism: inhibition of 2-methylserotonin-induced contraction of isolated distal colon (Test 1). In kind it is biochemical, guinea pigs. Conditions: for M (×10^-9 Mole): molar antagonist concentration corresponding to pA2, guinea pig distal colon, 2-methylserotonin; for Kb: pA2, isolated guinea pig distal colon.

Another experiment addresses T2, cardiac 5-HT3 receptors (Rattus norvegicus, UniProt P35563).
T2 construct: from tissue; host or cells: whole anaesthetised male SD rat (in vivo)
T2 sequence (P35563 24-483): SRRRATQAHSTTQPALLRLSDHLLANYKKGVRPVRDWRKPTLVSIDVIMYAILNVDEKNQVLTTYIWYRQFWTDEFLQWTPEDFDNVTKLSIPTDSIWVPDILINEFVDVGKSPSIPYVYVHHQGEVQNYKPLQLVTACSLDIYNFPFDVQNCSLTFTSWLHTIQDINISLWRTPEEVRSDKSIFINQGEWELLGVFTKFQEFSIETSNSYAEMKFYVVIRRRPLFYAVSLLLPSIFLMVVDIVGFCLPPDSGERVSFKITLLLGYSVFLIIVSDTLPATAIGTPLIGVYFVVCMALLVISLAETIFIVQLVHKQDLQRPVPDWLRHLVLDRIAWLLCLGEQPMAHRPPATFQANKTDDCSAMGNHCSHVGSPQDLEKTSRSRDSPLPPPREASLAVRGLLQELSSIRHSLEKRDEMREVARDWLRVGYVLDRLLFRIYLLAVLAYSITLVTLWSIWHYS
In words: Antagonism against von Bezold-Jarisch reflex (BJ reflex): serotonin-induced reflexive bradycardia (Test 2). In kind it is in vivo, SD rats. As to conditions: for ED50: rat, intravenous, 5 minutes prior to 30 µg/kg serotonin i.v., anesthetized male SD rats, read-out: ID50 (the source's name). On the procedure:
This test was conducted following the method of Fozard, at al. (Arch. Pharmacology, 326, 36-44, 1984). Male SD rats with a body weight of around 300 g were anesthetized by intraabdominal administration of 1.25 g/kg urethane, and an intravenous injection cannula was inserted in the right femoral vein while a sphygmomanometric cannula was inserted into the left femoral artery. The pulse was determined by measuring the electrocardiogram R waves (secondary induction) with an instantaneous pulse rate meter. After confirming satisfactory reproducibility of the reflexive bradycardia induced by intravenous administration of 30 µg/kg serotonin, the test compounds were intravenously administered 5 minutes prior to serotonin administration, the inhibition rates with respect to the initial values were found and the 50% inhibition doses (ID50) were calculated.

Experiment [1] concerns restraint stress-induced diarrhea. In words: Inhibiting effect on restraint stress-induced diarrhea, oral administration (Test 3). In kind it is in vivo, Wistar rats. As to conditions: for No. of animals with diarrhea / No. of animals used: feces observed 5 hours; for inhibition at 0.01 mg/kg: Rattus norvegicus, po, 1 h, read-out: Inhibition rate. On the procedure: This test was conducted following the method of Miyata, et al. (The Journal of Pharmacology and Experimental Therapeutics Vol.261, No.1, 297 (1992)). Nine to ten-week-old male Wistar rats starved overnight were placed in stress cages and their feces produced in 5 hours were observed. Of 15 rats, 14 developed diarrhea. The test compounds were administered orally one hour prior to placement in the stress cage, and the rate of inhibition on diarrhea was measured.

In a further experiment the test system is stress-related diarrhea. Conditions: animal models; J. Pharmacol. Exp. Ther. 261, 297 (1992); cited from earlier work.
The mark [2] stands for this setting: contraction induced by 2-methylserotonin.
[3] abbreviates: 10μg/kg orally one hour prior to stress cage.

Structures are written as SMILES. Counter-ions that a name gives are not always drawn. Like-named read-outs stand apart in the source and are kept apart here. Some results are limits rather than exact numbers.

The Kb is the affinity of an antagonist, worked out from how it opposes an agonist. Read a high Kb as lower antagonist affinity. In general, inhibition refers to the change of the read-out against control, counted positive when it falls. Take `Cc1[nH]cnc1CN1CCc2c(c3cccc4c3n2CCC4)C1=O` [A, 5,6,9,10-tetrahydro-10-[(5-methyl-1H-imidazol-4-yl)methyl]-4H-pyrido[3',4':4,5]pyrrolo[3,2,1-ij] quinolin-11(8H)-one]: at colonic 5-HT3 receptors, the “M (×10^-9 Mole)” value is listed as 10 ×10^-9 Mole. Moreover, at colonic 5-HT3 receptors (setting [2]), the Kb is 10 nM. Besides, the ED50 on cardiac 5-HT3 receptors was determined as 0.11 µg/kg. In addition, the “No. of animals with diarrhea / No. of animals used” value in experiment [1] (setting [3]) is 8/10. Moreover, the inhibition at 0.01 mg/kg in experiment [1] turned out to be 20%.

`Cc1[nH]cnc1CN1CCc2c(c3ccccc3n2C)C1=O.Cl` [Allosetron hydrochloride, 2,3,4,5-tetrahydro-5-methyl-2-[(5-methyl-1H-imidazol-4-yl)methyl]-1H-pyrido[4,3-b]indol-1-one hydrochloride]: at colonic 5-HT3 receptors, the “M (×10^-9 Mole)” value is reported as 21 ×10^-9 Mole. The same compound had a Kb on colonic 5-HT3 receptors (setting [2]) of 20 nM. The ED50 on cardiac 5-HT3 receptors turned out to be 0.28 µg/kg.

On to `Cc1[nH]cnc1CN1CCc2c(c3cccc4c3n2CC4)C1=O` [B, 4,5,7,8-tetrahydro-9-[(5-methyl-1H-imidazol-4-yl)methyl]-pyrido[4,3-b]pyrrolo[3,2,1-hi]indol-10(9H)-one], for which the “M (×10^-9 Mole)” value at colonic 5-HT3 receptors was 10 ×10^-9 Mole. Also, the Kb on colonic 5-HT3 receptors (setting [2]) was more than 10 nM.

Regarding `Cc1[nH]cnc1CN1CCc2c(c3cccc4c3n2CCO4)C1=O` [C, 1,2,9,10-tetrahydro-8-[(5-methyl-1H-imidazol-4-yl)methyl]pyrido[3',4':4,5]pyrrolo[1,2,3-de][1,4]benzoxadin-7(8H)-one], the “M (×10^-9 Mole)” value on colonic 5-HT3 receptors was >10 ×10^-9 Mole. The compound further gave a Kb at colonic 5-HT3 receptors (setting [2]) of more than 10 nM.

`Cc1[nH]cnc1CN1CCc2c(c3cccc4c3n2C(c2ccccc2)CC4)C1=O.Cl` (stereo not drawn) [Compound 1, 5,6,8,9,10,11-hexahydro-10-[(5-methyl-1H-imidazol-4-yl)methyl]-6-phenyl-11-oxo-4H-pyrido[3',4':4,5]pyrrolo[3,2,1-ij] quinoline hydrochloride]: the “selectivity for colonic 5-HT3 receptors relative to Allosetron” value at colonic 5-HT3 receptors (from Tests 1 and 2 (colon vs heart), vs Allosetron) is recorded as “about 90 times”. The “selectivity for colonic 5-HT3 receptors relative to Ondansetron” value on colonic 5-HT3 receptors (from Tests 1 and 2 (colon vs heart), vs Ondansetron) is recorded as “about 125 times”. Moreover, the “selectivity for colonic 5-HT3 receptors relative to YM-060” value on colonic 5-HT3 receptors (from Tests 1 and 2 (colon vs heart), vs YM-060) is “about 190 times”. In addition, the “selectivity for colonic 5-HT3 receptors relative to compound A” value on colonic 5-HT3 receptors (from Tests 1 and 2 (colon vs heart), vs compound A) is “about 100 times”. Further, at colonic 5-HT3 receptors, the “M (×10^-9 Mole)” value is recorded as 0.41 ×10^-9 Mole. This compound also had an antagonist dissociation constant (Kb) at colonic 5-HT3 receptors (setting [2]) of 0.398 nM. Besides, the “activity on the heart receptors relative to Ondansetron” value on cardiac 5-HT3 receptors (BJ reflex ID50 ratio, vs Ondansetron) was “about 4 times”. Moreover, the “activity on the heart receptors relative to YM-060” value at cardiac 5-HT3 receptors (BJ reflex ID50 ratio, vs YM-060) is recorded as “about 1/19”. Besides, the ED50 on cardiac 5-HT3 receptors came out at 0.5 µg/kg. Also, the “No. of animals with diarrhea / No. of animals used” value in experiment [1] (setting [3]) was 5/10. Besides, the inhibition at 0.01 mg/kg in experiment [1] was determined as 50%.

Turning to `Cc1[nH]cnc1CN1CCCc2c(c3cccc4c3n2CC4)C1=O` [D, 4,5,7,8,9,10-hexahydro-10-[(5-methyl-1H-imidazol-4-yl)methyl]-11H-azepino[4,3-b]pyrrolo[3,2,1-hi]indol-11-one], on colonic 5-HT3 receptors, the “M (×10^-9 Mole)” value is recorded as >10 ×10^-9 Mole. Further, the Kb on colonic 5-HT3 receptors (setting [2]) was more than 10 nM.

One may read the pA2 as a measure of antagonist potency on a negative log scale. Higher therefore signals a more potent antagonist. `Cc1[nH]cnc1CN1CCc2c(c3cccc4c3n2CCCC4)C1=O` [E] returned a pA2 on colonic 5-HT3 receptors (isolated guinea pig distal colon, contraction induced by 2-methylserotonin) of less than 8.0. Also, the “M (×10^-9 Mole)” value on colonic 5-HT3 receptors is >10 ×10^-9 Mole.

As for `Cc1[nH]cnc1CN1CCCc2c(c3cccc4c3n2CCC4)C1=O` [F, 11-[(5-methyl-1H-imidazol-4-yl)methyl]-5,6,9,10,11,12-hexahydro-4H,8H-azepino[3',4':4,5]pyrrolo[3,2,1-ij]quinolin-12-one], the “M (×10^-9 Mole)” value on colonic 5-HT3 receptors is given as >10 ×10^-9 Mole. Further, at colonic 5-HT3 receptors (setting [2]), the Kb was more than 10 nM.

For `Cc1[nH]cnc1CN1CCc2c(c3cccc4c3n2-c2ccccc2CC4)C1=O` [G, 3-[(4-methyl-1-H-imidazol-5-yl)methyl]-1,2,3,4,8,9-hexahydro-pyrido[4',3':2,3]indolo[1,7a,7-ab][1]benzazepin-4-one], on colonic 5-HT3 receptors, the “M (×10^-9 Mole)” value was >10 ×10^-9 Mole. For the same compound, at colonic 5-HT3 receptors (setting [2]), the Kb is more than 10 nM.

Turning to `CN1C2CCCC1CC(NC(=O)c1nn(C)c3ccccc13)C2` (stereo not drawn) [Granisetron, N-(endo-9-methyl-9-azabicyclo[3,3,1]non-3-yl)-1-methylindazol-3-carboxamide hydrochloride], in the experiment on stress-related diarrhea, the “suppression of stress-related diarrhea” value is given as “suppress stress-related diarrhea in animal models”.

`CN1C2CCC1CC(N1CCc3c(c4cccc5c4n3CCC5)C1=O)C2` (stereo not drawn) [H]: at colonic 5-HT3 receptors, the “M (×10^-9 Mole)” value is recorded as >10 ×10^-9 Mole. The same compound came in with a Kb at colonic 5-HT3 receptors (setting [2]) of more than 10 nM.

As for `O=C1c2c(n3c4c(cccc24)CCC3)CCN1C1CN2CCC1CC2` (stereo not drawn) [I, 10-(1-azabicyclo-[2,2,2]oct-3-yl)-5,6,8,9,10,11-hexahydro-4H-pyrido[3',4':4,5]pyrrolo[3,2,1-ij]quinolin-11-one], the “M (×10^-9 Mole)” value at colonic 5-HT3 receptors was >10 ×10^-9 Mole. At colonic 5-HT3 receptors (setting [2]), the Kb is more than 10 nM.

Consider `Cc1nccn1CC1CCc2c(c3ccccc3n2C)C1=O` (stereo not drawn) [Ondansetron hydrochloride, 1,2,3,4-tetrahydro-9-methyl-3-[(2-methyl-1H-imidazol-1-yl)methyl]-4H-carbazol-4-one hydrochloride dihydrate], for which the “M (×10^-9 Mole)” value at colonic 5-HT3 receptors is 227 ×10^-9 Mole. Moreover, the Kb at colonic 5-HT3 receptors (setting [2]) was 251 nM. In addition, on cardiac 5-HT3 receptors, the ED50 was found to be 2 µg/kg. Also, the “suppression of stress-related diarrhea” value with stress-related diarrhea was “suppress stress-related diarrhea in animal models”.

For the compound `Cl.Cn1cc(C(=O)[C@@H]2CCc3nc[nH]c3C2)c2ccccc21` [YM-060, (R)-(-)-5-[(1-methylindol-3-yl)carbonyl]-4,5,6,7-tetrahydrobenzimidazole hydrochloride], the “M (×10^-9 Mole)” value on colonic 5-HT3 receptors was 4.5 ×10^-9 Mole. For the same compound, the Kb at colonic 5-HT3 receptors (setting [2]) is 3.98 nM. In addition, the “No. of animals with diarrhea / No. of animals used” value in experiment [1] (setting [3]) is 7/10. Moreover, in experiment [1] (10μg/kg orally one hour prior to stress cage, inhibition of diarrhea), the inhibition at 0.01 mg/kg was 30%. Also, the “suppression of stress-related diarrhea” value in the experiment with stress-related diarrhea is recorded as “suppress stress-related diarrhea in animal models”.
